In PMC9612383, “Biological Activity of NHC-Gold-Alkynyl Complexes Derived from 3-Hydroxyflavones” (Pharmaceutics, 2022):
Like-named read-outs stand apart in the source and are kept apart here.

Experiments:
[1] = n-Octanol-water distribution coefficient, shake-flask; format: physicochemical; details: for LogP7.4 (distribution coefficient): n-octanol / buffered aqueous solution pH 7.4
Method: The n-octanol-water coefficients of the complexes were determined as previously reported using a shake-flask method. Buffered-saline distilled water (100 mL, phosphate buffer [PO4^3−] = 10 mM, [NaCl] = 0.15 M, pH 7.4) and n-octanol (100 mL) were shaken for 72 h to allow saturation of both phases. Approximately 1 mg of the complexes was dissolved in 5 mL of the aqueous phase and 5 mL of the organic phase were added, mixing for 10 min. The resulting emulsion was centrifuged to separate the phases. The concentration of the compounds in each phase was determined using UV absorbance spectroscopy. LogP was defined as log{[compound(organic)]/[compound(aqueous)]}.

Caco-2 cells [2] = experiment: MTT antiproliferative assay; format: cell-based, Human; details: for IC50: Caco-2 cell line, 72 h incubation, mean ± SE
Method: Human colorectal adenocarcinoma Caco-2 cells were kindly provided by Dr. Edith Brot-Laroche (Universite Pierre et Marie Curie-Paris 6 UMR S872, Les Cordeliers, France) and were maintained in a humidified atmosphere of 5% CO2 at 37 °C in Dulbecco’s Modified Eagles medium (DMEM) (Gibco Invitrogen, Paisley, UK) supplemented with 20% fetal bovine serum, 1% non-essential amino acids, 1% penicillin (1000 U/mL), 1% streptomycin ([…]) and 1% amphotericin (250 U/mL). For treatment, gold complexes were initially dissolved in DMSO to a concentration of 20 mM and then diluted on cell culture without fetal bovine serum to the required work concentrations, which was added 24 h post-seeding. Then, cells were incubated at 37 °C for the required time for each assay.
Cell viability was determined with the 3-(4,5-dimethyl-2-thiazoyl)-2,5-diphenyltetrazolium bromide (MTT) assay as previously described by Mármol et al.. For IC50 calculation, cells were grown in 96-well plates at a density of 4000 cells per well and incubated overnight at standard culture conditions. Then, cells were exposed 72 h to 0–20 μM of each gold complex and changes in absorbance were converted into percentage of growth inhibition in comparison to negative control (DMSO. Absorbance was measured with SPECTROstar Nano (BMG Labtech).

[3] = test system: panel of Gram-positive and Gram-negative strains; experiment: Disk diffusion method, whole panel (summary in words); format: cell-based; details: for antibacterial effect (in words): whole panel, Gram-positive and Gram-negative strains
Method: (§1) To evaluate the antibacterial potential of gold derivatives, […] bacterial strains were selected: E. coli, P. aeruginosa, S. enterica, E. faecalis, L. monocytogenes, S. epidermidis, S. aureus. Dis diffusion assay was performed following Clinical & Laboratory Standards Institute (CLSI) recommendations. Active cultures (0.5 McFarland) from all strains were spread onto Mueller–Hinton Agar (MHA, Oxoid, Basingstoke, UK) and disks impregnated with 10 µL of each gold complex or control (DMSO for negative control, phenol for positive control) were placed. Plates were and incubated for 22 h ± 2 h at 37 °C ± 1 °C and then the diameter of the inhibition zone was determined.
Given that NHC-gold derivatives might display antibacterial activity, we evaluated the antibacterial effect of the complexes toward a panel of Gram-positive and Gram-negative strains using the disk diffusion method. The selected strains are human pathogen or commensal bacteria and the results are summarized on Table 1.

S. aureus 13565 = experiment: Disk diffusion test; format: cell-based; details: for Inhibition Zone: complex 5 μg, 24 h incubation, diameter including disk (6 mm)
Method: (§2) To evaluate the antibacterial potential of gold derivatives, six bacterial strains were selected: E. coli, P. aeruginosa, S. enterica, E. faecalis, L. monocytogenes, S. epidermidis, S. aureus. Dis diffusion assay was performed following Clinical & Laboratory Standards Institute (CLSI) recommendations. […] Plates were and incubated for 22 h ± 2 h at 37 °C ± 1 °C and then the diameter of the inhibition zone was determined.

E. faecalis = experiment: Disk diffusion test; format: cell-based; details: for Inhibition Zone: complex 5 μg, 24 h incubation, diameter including disk (6 mm)
Method: as §2

P. aeruginosa = experiment: Disk diffusion test; format: cell-based; details: for Inhibition Zone: complex 5 μg, 24 h incubation, diameter including disk (6 mm)
Method: as §2

L. monocytogenes = experiment: Disk diffusion test; format: cell-based; details: for Inhibition Zone: complex 5 μg, 24 h incubation, diameter including disk (6 mm)
Method: as §2

S. aureus 2593 = experiment: Disk diffusion test; format: cell-based; details: for Inhibition Zone: complex 5 μg, 24 h incubation, diameter including disk (6 mm)
Method: as §2

S. epidermidis = experiment: Disk diffusion test; format: cell-based; details: for Inhibition Zone: complex 5 μg, 24 h incubation, diameter including disk (6 mm)
Method: as §2

E. coli 8739 = experiment: Disk diffusion test; format: cell-based
Method: as §2

E. coli 13216 = experiment: Disk diffusion test; format: cell-based
Method: as §2

E. coli 25922 = experiment: Disk diffusion test; format: cell-based; details: Escherichia coli, 25922, 24 h, read-out: Inhibition Zone
Method: as §2

S. enterica 14028 = experiment: Disk diffusion test; format: cell-based; details: Salmonella enterica, 14028, 24 h, read-out: Inhibition Zone
Method: as §2

S. enterica 25928 = experiment: Disk diffusion test; format: cell-based; details: Salmonella enterica, 25928; positive control 5.35 mg, 24 h incubation; diameter including disk (6 mm)
Method: as §1

Caco-2 cells [4] = test system: Caco-2 cells; set-up: method as in PMID 31546196; details: earlier work of the authors; cited from earlier work
[5] = test system: thioredoxin reductase enzyme; set-up: method as in PMID 31546196; details: earlier work of the authors; cited from earlier work
Caco-2 cells [6] = test system: Caco-2 cells; set-up: method as in PMID 31546196; details: cited from earlier work
[7] = set-up: method as in PMID 31546196; details: cited from earlier work
[8] = complex 5 μg, 24 h incubation, diameter including disk (6 mm)

Cn1cc[n+](C)[c]1[Au-][C]#CCOc1c(-c2ccccc2)oc2ccccc2c1=O [1a, [Au(La)(IMe)] (R = H; IMe = C5H10N2)]
LogP7.4 (distribution coefficient) [1]: 0.34
IC50 (Caco-2 cells [2]): 43.3 ± 5.06 µM
antibacterial effect (in words) [3]: no antibacterial effect

Cn1cc[n+](C)[c]1[Au-][C]#CCOc1c(-c2ccc(Cl)cc2)oc2ccccc2c1=O [1c, [Au(Lc)(IMe)] (R = Cl; IMe = C5H10N2)]
LogP7.4 (distribution coefficient) [1]: 1.96
IC50 (Caco-2 cells [2]): 15.1 ± 3.04 µM
antibacterial effect (in words) [3]: no antibacterial effect

COc1ccc(-c2oc3ccccc3c(=O)c2OCC#[C][Au-][c]2n(C)cc[n+]2C)cc1 [1d, [Au(Ld)(IMe)] (R = OMe; IMe = C5H10N2)]
LogP7.4 (distribution coefficient) [1]: 0.22
Inhibition Zone (S. aureus 13565): 11.86 ± 0.20 mm
Inhibition Zone (E. faecalis): 9.47 ± 1.67 mm
Inhibition Zone (P. aeruginosa): -
Inhibition Zone (L. monocytogenes): 14.25 ± 1.06 mm
Inhibition Zone (S. aureus 2593): 9.70 ± 0.02 mm
Inhibition Zone (S. epidermidis): 17.23 ± 0.87 mm
IC50 (Caco-2 cells [2]): 16.3 ± 1.04 µM
antibacterial effect on Gram-negative strains (in words) [3]: inactive against Gram-negative strains
antibacterial effect on Gram-positive strains (in words) [3]: able to inhibit the growth of all Gram-positive bacterial strains

CC(C)c1cccc(C(C)C)c1-n1cc[n+](-c2c(C(C)C)cccc2C(C)C)[c]1[Au-][C]#CCOc1c(-c2ccccc2)oc2ccccc2c1=O [2a, [Au(La)(IPr)] (R = H; IPr = C27H38N2)]
lipophilic character (in words) ([1]; from log P, pH 7.4): balanced hydrophilic-lipophilic character
LogP7.4 (distribution coefficient) [1]: 0.42
fold lower IC50 of 2a than homologue 1a (Caco-2 cells [2]; Caco-2, 72 h, p < 0.05): 2.65 times
IC50 (Caco-2 cells [2]): 16.3 ± 2.04 µM

CC(C)c1cccc(C(C)C)c1-n1cc[n+](-c2c(C(C)C)cccc2C(C)C)[c]1[Au-][C]#CCOc1c(-c2ccc(Br)cc2)oc2ccccc2c1=O [2b, [Au(Lb)(IPr)] (R = Br; IPr = C27H38N2)]
LogP7.4 (distribution coefficient) [1]: 1.47
Inhibition Zone (S. aureus 13565): 14.03 ± 0.17 mm
Inhibition Zone (E. faecalis): 12.1 ± 0.99 mm
Inhibition Zone (P. aeruginosa): -
Inhibition Zone (L. monocytogenes): 17.17 ± 0.24 mm
Inhibition Zone (S. aureus 2593): 12.79 ± 1.11 mm
Inhibition Zone (E. coli 8739; [8]): 8.97 ± 0.49 mm
Inhibition Zone (S. epidermidis): 20.95 ± 0.91 mm
Inhibition Zone (E. coli 13216; [8]): 8.10 ± 0.60 mm
IC50 (Caco-2 cells [2]): 53.9 ± 22.7 µM
antibacterial effect (in words) [3]: able to interfere with the development of both Gram positive and Gram negative strains

CC(C)c1cccc(C(C)C)c1-n1cc[n+](-c2c(C(C)C)cccc2C(C)C)[c]1[Au-][C]#CCOc1c(-c2ccc(Cl)cc2)oc2ccccc2c1=O [2c, [Au(Lc)(IPr)] (R = Cl; IPr = C27H38N2)]
LogP7.4 (distribution coefficient) [1]: 1.11
Inhibition Zone (S. aureus 13565): 12.19 ± 0.88 mm
Inhibition Zone (E. faecalis): 10.25 ± 1.41 mm
Inhibition Zone (P. aeruginosa): -
Inhibition Zone (L. monocytogenes): 15.33 ± 0.47 mm
Inhibition Zone (S. aureus 2593): 10.49 ± 1.13 mm
Inhibition Zone (S. epidermidis): 18.06 ± 2.04 mm
IC50 (Caco-2 cells [2]): 46.1 ± 22.5 µM
antibacterial effect on Gram-negative strains (in words) [3]: inactive against Gram-negative strains
antibacterial effect on Gram-positive strains (in words) [3]: able to inhibit the growth of all Gram-positive bacterial strains

COc1ccc(-c2oc3ccccc3c(=O)c2OCC#[C][Au-][c]2n(-c3c(C(C)C)cccc3C(C)C)cc[n+]2-c2c(C(C)C)cccc2C(C)C)cc1 [2d, [Au(Ld)(IPr)] (R = OMe; IPr = C27H38N2)]
LogP7.4 (distribution coefficient) [1]: 3.40
IC50 (Caco-2 cells [2]): 48.2 ± 14.6 µM
antibacterial effect (in words) [3]: no antibacterial effect

CC(=O)OC[C@H]1O[C@@H]([S-])[C@H](OC(C)=O)[C@@H](OC(C)=O)[C@@H]1OC(C)=O.CCP(CC)CC.[Au+] [Auranofin, 2,3,4,6-tetraacetyl-1-thio-β-D-glucopyranosato-S-triethylphosphane gold(I), reference compound]
LogP7.4 (distribution coefficient) [1]: −2.53
IC50 (Caco-2 cells [2]): 1.8 ± 0.1 µM

Oc1ccccc1 [Phenol, reference compound]
zone of inhibition at 5350 µg/disc (S. aureus 13565; Staphylococcus aureus, 13565, 24 h, read-out: Inhibition Zone): 17.2 ± 3.38 mm
zone of inhibition at 5350 µg/disc (E. faecalis; Enterococcus faecalis, 24 h, read-out: Inhibition Zone): 13.5 ± 2.12 mm
zone of inhibition at 5350 µg/disc (P. aeruginosa; Pseudomonas aeruginosa, 24 h, read-out: Inhibition Zone): 30.5 ± 1.45 mm
zone of inhibition at 5350 µg/disc (E. coli 25922): 23.4 ± 1.26 mm
zone of inhibition at 5350 µg/disc (S. enterica 14028): 27.8 ± 1.11 mm
zone of inhibition at 5350 µg/disc (L. monocytogenes; Listeria monocytogenes, 24 h, read-out: Inhibition Zone): 16.58 ± 0.12 mm
zone of inhibition at 5350 µg/disc (S. aureus 2593; Staphylococcus aureus, 2593, 24 h, read-out: Inhibition Zone): 12.1 ± 0.73 mm
zone of inhibition at 5350 µg/disc (E. coli 8739; Escherichia coli, 8739, 24 h, read-out: Inhibition Zone): 22.7 ± 1.37 mm
zone of inhibition at 5350 µg/disc (S. epidermidis; Staphylococcus epidermidis, 24 h, read-out: Inhibition Zone): 22.7 ± 4.49 mm
zone of inhibition at 5350 µg/disc (E. coli 13216; Escherichia coli, 13216, 24 h, read-out: Inhibition Zone): 20.7 ± 2.97 mm
zone of inhibition at 5350 µg/disc (S. enterica 25928): 19.2 ± 0.42 mm

O=c1c(OCC#[C][Au][PH](c2ccccc2)(c2ccccc2)c2ccccc2)c(-c2ccc(Br)cc2)oc2ccccc12 [[Au(L2b)PPh3]]
ROS levels (in words) (Caco-2 cells [4]): induce an increase in ROS levels
thioredoxin reductase inhibition (in words) [5]: able to inhibit thioredoxin reductase enzyme

O=c1c(OCC#[C][Au][PH](c2ccccc2)(c2ccccc2)c2ccccc2)c(-c2ccc(Cl)cc2)oc2ccccc12 [[Au(L2c)PPh3]]
IC50 (Caco-2 cells [6]): 5.34 ± 0.05 µM
distribution coefficient value [7]: 1.17

Cn1ccn(C)[c]1=[Au-2][Cl] [[AuCl(IMe)], reference compound]
IC50 (Caco-2 cells [2]): > 100 µM
antiproliferative effect (in words) (Caco-2 cells [2]; Caco-2 cells): ineffective

CC(C)c1cccc(C(C)C)c1-n1ccn(-c2c(C(C)C)cccc2C(C)C)[c]1=[Au][Cl] [[AuCl(IPr)], reference compound]
IC50 (Caco-2 cells [2]): 9.09 ± 3.22 µM
